Results published in patent publication US10597388B2, “Pyridazinone herbicides” (FMC CORPORATION, priority 2014, dated 2020).

Assays:
Test in all cases: Test D controlled growth environment herbicide test, pre- and postemergence
Assay type in all cases: in vivo
[1] = test system: galium (catchweed bedstraw, Galium aparine)
Method in brief: (§1)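 Rating is visual, 0–100 scale (100 = complete control), made against untreated plants 14–21 d after treatment in controlled growth conditions. Postemergence sprays went onto 1- to 4-leaf plants in peat medium; preemergence sprays onto silt loam after sowing; formulation included a surfactant.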

[2] = test system: lambsquarters (Chenopodium album)
Method in brief: as §1

[3] = test system: bromegrass, downy (downy bromegrass, Bromus tectorum)
Method in brief: as §1

[4] = test system: speedwell (bird's-eye speedwell, Veronica persica)
Method in brief: as §1

[5] = test system: oilseed rape (Brassica napus)
Method in brief: as §1

[6] = test system: blackgrass (Alopecurus myosuroides)
Method in brief: as §1

[7] = test system: chamomile (scentless chamomile, Matricaria inodora)
Method in brief: as §1

[8] = test system: buckwheat, wild (wild buckwheat, Polygonum convolvulus)
Method in brief: as §1

[9] = test system: field violet (Viola arvensis)
Method in brief: as §1

kochia (Kochia scoparia) = test system: kochia (Kochia scoparia)
Method in brief: as §1

[10] = test system: Russian thistle (Salsola kali)
Method in brief: as §1

[11] = test system: oat, wild (wild oat, Avena fatua)
Method in brief: as §1

[12] = test system: pigweed (Amaranthus retroflexus)
Method in brief: as §1

[13] = Postemergence, 31 g ai/ha, scale 0 to 100 (0 no effect, 100 complete control)
[14] = Postemergence, 125 g ai/ha, visual rating on scale 0 (no effect) to 100 (complete control), 14 to 21 d
[15] = Postemergence, 250 g ai/ha, scale 0 to 100 (0 no effect, 100 complete control)
[16] = Preemergence, 125 g ai/ha, scale 0 to 100 (0 no effect, 100 complete control)
[17] = Preemergence, 250 g ai/ha, scale 0 to 100 (0 no effect, 100 complete control)
[18] = postemergence, 62 g ai/ha, scale 0 to 100, 0 no effect, 100 complete control
[19] = Preemergence, 62 g ai/ha, scale 0 to 100 (0 no effect, 100 complete control)

With CCOC(=O)Oc1c(C)nn(C)c(=O)c1-c1c(C)sc2c(C)cc(C)cc12 [Compound 83] the “Galium plant response rating” value [1, 13] was 100, the “Plant response rating, Galium” value [1, 14] was 100 and the “Plant response rating, Galium” value [1, 15] was 100. The “Plant response rating (scale of 0 to 100), Galium” value ([1]; Preemergence, 31 g ai/ha) was 0, the “Plant response rating (scale of 0 to 100), Galium” value ([1]; Preemergence, 62 g ai/ha) was 25 and the “Plant response rating, Galium” value [1, 16] was 40. The “Plant response rating, Galium” value [1, 17] was 85, the “Plant response rating, Galium” value [1, 18] was 100 and the “Lambsquarters plant response rating” value [2, 13] was 95. For the same compound, the “Plant response rating, Lambsquarters” value [2, 14] was 100, the “Plant response rating, Lambsquarters” value [2, 15] was 100 and the “Plant response rating (scale of 0 to 100), Lambsquarters” value ([2]; Preemergence, 31 g ai/ha) was 95. The “Plant response rating (scale of 0 to 100), Lambsquarters” value ([2]; Preemergence, 62 g ai/ha) was 65, the “Plant response rating, Lambsquarters” value [2, 16] was 100 and the “Plant response rating, Lambsquarters” value [2, 17] was 100. The “Plant response rating, Lambsquarters” value [2, 18] was 100, the “Bromegrass, Downy plant response rating” value [3, 13] was 25 and the “Plant response rating, Bromegrass, Downy” value [3, 14] was 50. The “Plant response rating, Bromegrass, Downy” value [3, 15] was 70, the “Plant response rating (scale of 0 to 100), Bromegrass, Downy” value ([3]; Preemergence, 31 g ai/ha) was 20 and the “Plant response rating, Bromegrass, Downy” value [3, 19] was 30. For the same compound, the “Plant response rating, Bromegrass, Downy” value [3, 16] was 60, the “Plant response rating, Bromegrass, Downy” value [3, 17] was 40 and the “Plant response rating, Bromegrass, Downy” value [3, 18] was 35. For the same compound, the “Speedwell plant response rating” value [4, 13] was 65, the “Plant response rating, Speedwell” value [4, 14] was 75 and the “Plant response rating, Speedwell” value [4, 15] was 100. The “Plant response rating (scale of 0 to 100), Speedwell” value ([4]; Preemergence, 31 g ai/ha) was 70, the “Plant response rating (scale of 0 to 100), Speedwell” value ([4]; Preemergence, 62 g ai/ha) was 75 and the “Plant response rating, Speedwell” value [4, 16] was 100. For the same compound, the “Plant response rating, Speedwell” value [4, 17] was 100, the “Plant response rating, Speedwell” value [4, 18] was 70 and the “Oilseed Rape plant response rating” value [5, 13] was 65. For the same compound, the “Plant response rating, Oilseed Rape” value [5, 14] was 75, the “Plant response rating, Oilseed Rape” value [5, 15] was 95 and the “Plant response rating (scale of 0 to 100), Oilseed Rape” value ([5]; Preemergence, 31 g ai/ha) was 5. For the same compound, the “Plant response rating (scale of 0 to 100), Oilseed Rape” value ([5]; Preemergence, 62 g ai/ha) was 5, the “Plant response rating, Oilseed Rape” value [5, 16] was 10 and the “Plant response rating, Oilseed Rape” value [5, 17] was 10. For the same compound, the “Plant response rating, Oilseed Rape” value [5, 18] was 70, the “Blackgrass plant response rating” value [6, 13] was 65 and the “Plant response rating, Blackgrass” value [6, 14] was 75. For the same compound, the “Plant response rating, Blackgrass” value [6, 15] was 80, the “Plant response rating (scale of 0 to 100), Blackgrass” value ([6]; Preemergence, 31 g ai/ha) was 20 and the “Plant response rating, Blackgrass” value [6, 19] was 60. The “Plant response rating, Blackgrass” value [6, 16] was 70, the “Plant response rating, Blackgrass” value [6, 17] was 85 and the “Plant response rating, Blackgrass” value [6, 18] was 70. For the same compound, the “Chamomile plant response rating” value [7, 13] was 95, the “Plant response rating, Chamomile” value [7, 14] was 100 and the “Plant response rating, Chamomile” value [7, 15] was 100. For the same compound, the “Plant response rating, Chamomile” value [7, 18] was 100, the “Buckwheat, Wild plant response rating” value [8, 13] was 100 and the “Plant response rating, Buckwheat, Wild” value [8, 14] was 100. For the same compound, the “Plant response rating, Buckwheat, Wild” value [8, 15] was 100, the “Plant response rating (scale of 0 to 100), Buckwheat, Wild” value ([8]; Preemergence, 31 g ai/ha) was 0 and the “Plant response rating, Buckwheat, Wild” value [8, 19] was 0. For the same compound, the “Plant response rating, Buckwheat, Wild” value [8, 16] was 0, the “Plant response rating, Buckwheat, Wild” value [8, 17] was 25 and the “Plant response rating, Buckwheat, Wild” value [8, 18] was 100. For the same compound, the “Field Violet plant response rating” value [9, 13] was 90, the “Plant response rating, Field Violet” value [9, 14] was 100 and the “Plant response rating, Field Violet” value [9, 15] was 100. For the same compound, the “Plant response rating (scale of 0 to 100), Field Violet” value ([9]; Preemergence, 31 g ai/ha) was 75, the “Plant response rating (scale of 0 to 100), Field Violet” value ([9]; Preemergence, 62 g ai/ha) was 80 and the “Plant response rating, Field Violet” value [9, 16] was 95. The “Plant response rating, Field Violet” value [9, 17] was 100, the “Plant response rating, Field Violet” value [9, 18] was 80 and the “Kochia plant response rating” value (kochia (Kochia scoparia); [13]) was 70. For the same compound, the “Plant response rating, Kochia” value (kochia (Kochia scoparia); [14]) was 80, the “Plant response rating, Kochia” value (kochia (Kochia scoparia); [15]) was 90 and the “Plant response rating (scale of 0 to 100), Kochia” value (kochia (Kochia scoparia); Preemergence, 31 g ai/ha) was 0. For the same compound, the “Plant response rating (scale of 0 to 100), Kochia” value (kochia (Kochia scoparia); Preemergence, 62 g ai/ha) was 0, the “Plant response rating, Kochia” value (kochia (Kochia scoparia); [16]) was 30 and the “Plant response rating, Kochia” value (kochia (Kochia scoparia); [17]) was 50. For the same compound, the “Plant response rating, Kochia” value (kochia (Kochia scoparia); [18]) was 75, the “Russian Thistle plant response rating” value [10, 13] was 75 and the “Plant response rating, Russian Thistle” value [10, 14] was 80. For the same compound, the “Plant response rating, Russian Thistle” value [10, 15] was 85, the “Plant response rating (scale of 0 to 100), Russian Thistle” value ([10]; Preemergence, 31 g ai/ha) was 0 and the “Plant response rating (scale of 0 to 100), Russian Thistle” value ([10]; Preemergence, 62 g ai/ha) was 0. For the same compound, the “Plant response rating, Russian Thistle” value [10, 16] was 15, the “Plant response rating, Russian Thistle” value [10, 17] was 0 and the “Plant response rating, Russian Thistle” value [10, 18] was 80. For the same compound, the “Oat, Wild plant response rating” value [11, 13] was 80, the “Plant response rating, Oat, Wild” value [11, 14] was 90 and the “Plant response rating, Oat, Wild” value [11, 15] was 95. For the same compound, the “Plant response rating (scale of 0 to 100), Oat, Wild” value ([11]; Preemergence, 31 g ai/ha) was 80, the “Plant response rating (scale of 0 to 100), Oat, Wild” value ([11]; Preemergence, 62 g ai/ha) was 85 and the “Plant response rating, Oat, Wild” value [11, 16] was 90. The “Plant response rating, Oat, Wild” value [11, 17] was 90, the “Plant response rating, Oat, Wild” value [11, 18] was 85 and the “Pigweed plant response rating” value [12, 13] was 100. The “Plant response rating, Pigweed” value [12, 14] was 100, the “Plant response rating, Pigweed” value [12, 15] was 100 and the “Plant response rating (scale of 0 to 100), Pigweed” value ([12]; Preemergence, 31 g ai/ha) was 100. The “Plant response rating (scale of 0 to 100), Pigweed” value ([12]; Preemergence, 62 g ai/ha) was 100, the “Plant response rating, Pigweed” value [12, 16] was 100 and the “Plant response rating, Pigweed” value [12, 17] was 100. For the same compound, the “Plant response rating, Pigweed” value [12, 18] was 100.
